ChEMBL document CHEMBL5236642, “Discovery of structural diverse reversible BTK inhibitors utilized to develop a novel in vivo CD69 and CD86 PK/PD mouse model” (Bioorg Med Chem Lett, 2023)
Converted amounts (≈) assume the structure as drawn.

Tests used:
[1] = Half-life in Sprague-Dawley rat at 1 mg/kg, iv; type: ADME, organism-based; settings: in vivo
[2] = Oral bioavailability in Sprague-Dawley rat at 5 mg/kg; type: ADME, organism-based; settings: in vivo
[3] = Apparent permeability from apical to basolateral side in human CaCo-2/TC-7 cells; type: ADME, cell-based, Caco2/TC7
[4] = Volume of distribution at steady state in Sprague-Dawley rat at 1 mg/kg, iv; type: ADME, organism-based; settings: in vivo, read-out: Vdss
[5] = Tmax in Sprague-Dawley rat at 5 mg/kg, po; type: ADME, organism-based; settings: in vivo
[6] = Solubility of the compound; type: physicochemical
[7] = Tmax in rat at 2 mg/kg, po; type: ADME, organism-based; settings: in vivo
[8] = Half-life in rat at 2 mg/kg, iv; type: ADME, organism-based; settings: in vivo
[9] = Clearance in rat at 2 mg/kg, iv; type: ADME, organism-based; settings: in vivo
[10] = Oral bioavailability in rat at 2 mg/kg; type: ADME, organism-based; settings: in vivo

half-life [1]	bioavailability [2]	Papp A→B [3]	Vd [4]	Tmax [5]	solubility [6]	Tmax [7]	half-life [8]	CL [9]	bioavailability [10]	Compound
0.9 h	34%	190 ×10⁻⁶ cm/s	1.1 L/kg	0.87 h	–	–	–	–	–	O=C(CNc1cc(Cl)cc(Cl)c1)N1CC[C@H]2CCN(c3ncnc4[nH]ccc34)[C@H]2C1
–	–	–	–	–	39 µg/mL (≈ 93 µM)	–	–	–	–	O=C(CNc1cc(Cl)cc(Cl)c1)NC1CCCN(c2ncnc3[nH]ccc23)C1 (stereo not given)
–	–	–	–	–	–	2 h	13.3 h	8 mg/mL/kg	98%	O=C(CNc1cc(Cl)cc(Cl)c1)N1CCC[C@@H](Nc2ncnc3[nH]ccc23)C1
5.3 h	23%	150 ×10⁻⁶ cm/s	1.3 L/kg	1.6 h	–	–	–	–	–	C[C@@H]1[C@H](Nc2ncnc3[nH]ccc23)CCCN1C(=O)CNc1cc(Cl)cc(Cl)c1
